Measurements taken from ChEMBL document CHEMBL1201862, “PubChem BioAssay data set” (2004).
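Method: 48-hour compound exposure of cells in 96-well plates, five concentrations, linear interpolation of endpoints. GI50 is the concentration that inhibits growth by half.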 Activity calls are given as the source filed them. No stated cut-off is given here; in the data, active = GI50 up to about 1.1 µM and inactive = higher. Non-standard residues stand in square brackets, D forms with d. Residues, ends and D or L forms follow the SMILES beside them. ξ: configuration not given here. *: point of attachment. NMeF = CN[C@@H](Cc1ccccc1)C(=O)O; ξNMeV = CNC(C(=O)O)C(C)C; Boc = CC(C)(C)OC(=O)*; OBn = c1ccc(CO*)cc1

Legend:
Experiment in all cases: NCI anticancer screen, dose series, 48 h
786-0 = system: 786-0
ACHN = system: ACHN
CAKI-1 = system: CAKI-1
COLO 205 = system: COLO 205
EKVX = system: EKVX
KM12 = system: KM12
M19-MEL = system: M19-MEL
MOLT-4 = system: MOLT-4
Malme-3M = system: Malme-3M
NCI-H226 = system: NCI-H226
OVCAR-4 = system: OVCAR-4
RXF 393 = system: RXF 393
SF-268 = system: SF-268
SF-295 = system: SF-295
SNB-19 = system: SNB-19
SNB-75 = system: SNB-75
UACC-257 = system: UACC-257
UACC-62 = system: UACC-62
RPMI-8226 = system: RPMI-8226
BT-549 = system: BT-549

Compound	GI50 (786-0)	GI50 (ACHN)	GI50 (CAKI-1)	GI50 (COLO 205)	GI50 (EKVX)	GI50 (KM12)	GI50 (M19-MEL)	GI50 (MOLT-4)	GI50 (Malme-3M)	GI50 (NCI-H226)	GI50 (OVCAR-4)	GI50 (RXF 393)	GI50 (SF-268)	GI50 (SF-295)	GI50 (SNB-19)	GI50 (SNB-75)	GI50 (UACC-257)	GI50 (UACC-62)	GI50 (RPMI-8226)	GI50 (BT-549)
COC(=O)C(C(=O)C(=O)Nc1ccc([N+](=O)[O-])cc1)c1nc2ccc([N+](=O)[O-])cc2nc1O (stereo not given)	> 100 µM (inactive)	> 100 µM (inactive)	> 100 µM (inactive)	> 100 µM (inactive)	> 100 µM (inactive)	> 100 µM (inactive)	> 100 µM (inactive)	> 100 µM (inactive)	> 100 µM (inactive)	> 100 µM (inactive)	> 100 µM (inactive)	> 100 µM (inactive)	> 100 µM (inactive)	> 100 µM (inactive)	> 100 µM (inactive)	> 100 µM (inactive)	> 100 µM (inactive)	63.1 µM (inactive)	–	–
COC(=O)C(Cc1nc2ccccc2nc1C)/C(=N\NC(N)=O)C(=O)Nc1cccc([N+](=O)[O-])c1 (stereo not given)	> 100 µM (inactive)	> 100 µM (inactive)	> 100 µM (inactive)	88.3 µM (inactive)	> 100 µM (inactive)	95.9 µM (inactive)	37.9 µM (inactive)	57.5 µM (inactive)	> 100 µM (inactive)	> 100 µM (inactive)	> 100 µM (inactive)	36.8 µM (inactive)	64.9 µM (inactive)	> 100 µM (inactive)	> 100 µM (inactive)	> 100 µM (inactive)	> 100 µM (inactive)	45.2 µM (inactive)	> 100 µM (inactive)	–
O=C1c2ccccc2N2OC3(N4CCCC4)CCCC3C12c1ccccc1 (stereo not given)	> 100 µM (inactive)	> 100 µM (inactive)	–	> 100 µM (inactive)	> 100 µM (inactive)	–	> 100 µM (inactive)	49.9 µM (inactive)	> 100 µM (inactive)	> 100 µM (inactive)	29.6 µM (inactive)	> 100 µM (inactive)	> 100 µM (inactive)	86.1 µM (inactive)	> 100 µM (inactive)	> 100 µM (inactive)	71.6 µM (inactive)	74.3 µM (inactive)	62.8 µM (inactive)	–
C1COCCN1.S=C(S)N1CCOCC1	10.1 µM (inactive)	> 100 µM (inactive)	5.51 µM (inactive)	0.661 µM (active)	> 100 µM (inactive)	20.1 µM (inactive)	1.25 µM (inactive)	1.47 µM (inactive)	28.4 µM (inactive)	> 100 µM (inactive)	6.9 µM (inactive)	2.43 µM (inactive)	9.68 µM (inactive)	> 100 µM (inactive)	> 100 µM (inactive)	7.08 µM (inactive)	4.68 µM (inactive)	3.8 µM (inactive)	1.4 µM (inactive)	> 100 µM (inactive)
CCCCCC(CN1CCOCC1)C(=O)/C=C/c1ccccc1 (stereo not given)	1.76 µM (inactive)	–	–	3.77 µM (inactive)	10.4 µM (inactive)	1.76 µM (inactive)	2.41 µM (inactive)	1.71 µM (inactive)	2.1 µM (inactive)	3.36 µM (inactive)	2.95 µM (inactive)	1.82 µM (inactive)	1.94 µM (inactive)	3.46 µM (inactive)	3.43 µM (inactive)	7.13 µM (inactive)	2.96 µM (inactive)	1.46 µM (inactive)	2.11 µM (inactive)	–
COCOCC[C@@H]1CC=CC(NC(=O)OCc2ccccc2)C1/C=C/C(=O)CCC1OCCO1 (stereo not given in full)	48.4 µM (inactive)	36.6 µM (inactive)	44.2 µM (inactive)	20.7 µM (inactive)	50.1 µM (inactive)	18.8 µM (inactive)	19.1 µM (inactive)	10.5 µM (inactive)	98.2 µM (inactive)	46.7 µM (inactive)	29 µM (inactive)	29.7 µM (inactive)	34 µM (inactive)	48.1 µM (inactive)	> 100 µM (inactive)	28.8 µM (inactive)	25.4 µM (inactive)	25.5 µM (inactive)	26.1 µM (inactive)	–
CCN(CC)CCCCC1CCN(CC(=O)N2c3ccccc3NC(=O)c3ccccc32)CC1	> 100 µM (inactive)	–	> 100 µM (inactive)	> 100 µM (inactive)	> 100 µM (inactive)	> 100 µM (inactive)	> 100 µM (inactive)	> 100 µM (inactive)	81.5 µM (inactive)	> 100 µM (inactive)	> 100 µM (inactive)	–	> 100 µM (inactive)	> 100 µM (inactive)	> 100 µM (inactive)	> 100 µM (inactive)	48.1 µM (inactive)	> 100 µM (inactive)	> 100 µM (inactive)	–
CC(C)C(C(=O)N1CCC[C@@H]1C(=O)OCc1ccccc1)N(C)C(=O)C(C(C)C)N(C)C(=O)[C@H](Cc1ccccc1)N(C)C(=O)[C@H](NC(=O)OC(C)(C)C)C(C)C (stereo not given in full) (Boc-[dV][NMeF][ξNMeV][ξNMeV][dP]-OBn)	> 100 µM (inactive)	16.7 µM (inactive)	–	> 100 µM (inactive)	> 65.8 µM (inactive)	> 80.7 µM (inactive)	> 48.5 µM (inactive)	7.94 µM (inactive)	> 89.5 µM (inactive)	> 100 µM (inactive)	> 54.2 µM (inactive)	> 100 µM (inactive)	> 86.1 µM (inactive)	9.04 µM (inactive)	> 100 µM (inactive)	9.91 µM (inactive)	13.6 µM (inactive)	> 100 µM (inactive)	10.9 µM (inactive)	–
